Results: ChEMBL document CHEMBL1687939 (J Med Chem, 2011)
The source made the active and inactive calls. The calls are words filed in the database; no cut-off is given here.

Key:
Carbonic anhydrase 9 = Carbonic anhydrase 9 (Homo sapiens, UniProt Q16790)
Description: Inhibition of tumor-associated human carbonic anhydrase 9 preincubated for 15 min by CO2 hydration assay

Carbonic anhydrase 1 = Carbonic anhydrase 1 (Homo sapiens, UniProt P00915)
Description: Inhibition of human cytosolic carbonic anhydrase 1 preincubated for 15 min by CO2 hydration assay

Carbonic anhydrase 12 = Carbonic anhydrase 12 (Homo sapiens, UniProt O43570)
Description: Inhibition of tumor-associated human carbonic anhydrase 12 preincubated for 15 min by CO2 hydration assay

4T1 [1] = assay: Antimetastatic activity against mouse 4T1 cells expressing luciferase xenografted in BALB/c mouse assessed as reduction in metastasic burden in lungs at 15 to 30 mg/kg, ip qd administered 24 hrs after challenge for 5 days measured 24 hrs post last dose by bioluminescent technique relative to control; format: functional, organism-based
Mus musculus [2] = assay: Toxicity in BALB/c mouse assessed as body weight loss at 15 to 30 mg/kg, ip qd for 5 days; format: organism-based; set-up: dose 15-30 mg/kg, route intraperitoneal; conditions: in vivo, 120 h
4T1 [3] = assay: Antimetastatic activity against mouse 4T1 cells expressing luciferase xenografted in BALB/c mouse assessed as limiting colonization of the cells in the lungs at 15 to 45 mg/kg, ip administered as 3 doses on alternate days measured 24 hrs post last dose by bioluminescent technique relative to control; format: functional, organism-based
Mus musculus [4] = assay: Toxicity in BALB/c mouse assessed as body weight loss at 15 to 45 mg/kg, ip qd administered as 3 doses on alternate days; format: organism-based; set-up: dose 15-45 mg/kg, route intraperitoneal; conditions: in vivo

Carbonic anhydrase 1, sequence (P00915 whole entry): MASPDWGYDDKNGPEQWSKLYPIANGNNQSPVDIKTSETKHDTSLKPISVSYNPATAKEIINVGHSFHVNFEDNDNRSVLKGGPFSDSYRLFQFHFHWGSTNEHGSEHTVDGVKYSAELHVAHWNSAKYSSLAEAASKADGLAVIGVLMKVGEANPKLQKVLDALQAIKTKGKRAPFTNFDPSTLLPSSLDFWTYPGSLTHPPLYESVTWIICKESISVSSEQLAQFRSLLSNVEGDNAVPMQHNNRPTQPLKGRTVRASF
Carbonic anhydrase 12, sequence (O43570 whole entry): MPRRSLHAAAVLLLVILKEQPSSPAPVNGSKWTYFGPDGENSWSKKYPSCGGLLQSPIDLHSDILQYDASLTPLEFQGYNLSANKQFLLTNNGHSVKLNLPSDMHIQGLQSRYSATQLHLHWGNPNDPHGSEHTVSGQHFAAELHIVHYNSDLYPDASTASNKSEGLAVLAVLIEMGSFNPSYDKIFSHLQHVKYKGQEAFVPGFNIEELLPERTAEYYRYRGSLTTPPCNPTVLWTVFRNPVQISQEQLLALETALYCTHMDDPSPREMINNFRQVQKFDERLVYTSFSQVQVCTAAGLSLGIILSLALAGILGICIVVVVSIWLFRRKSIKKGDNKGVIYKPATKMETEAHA

Ki (Carbonic anhydrase 9) [nM]	Ki (Carbonic anhydrase 12) [nM]	SMILES	also measured
0.3	4.6	N#Cc1ccccc1NC(=O)Nc1ccc(S(N)(=O)=O)cc1	Ki (Carbonic anhydrase 1): 10.9 nM
69.1	7.1	NS(=O)(=O)c1ccc(NC(=O)Nc2ccc(Oc3ccccc3)cc2)cc1	Ki (Carbonic anhydrase 1): 604 nM
24.5	4.3	NS(=O)(=O)c1ccc(NC(=O)Nc2ccc(I)cc2)cc1	–
6	6.5	N#Cc1ccc(NC(=O)Nc2ccc(S(N)(=O)=O)cc2)cc1	Ki (Carbonic anhydrase 1): 57 nM
–	5.3	NS(=O)(=O)c1ccc(NC(=O)Nc2ccc(Cl)cc2)cc1	–
–	6	COc1ccc(NC(=O)Nc2ccc(S(N)(=O)=O)cc2)c(C)c1	–
0.8	2.5	CCCCOc1ccc(NC(=O)Nc2ccc(S(N)(=O)=O)cc2)cc1	–
465	61.2	COc1ccccc1NC(=O)Nc1ccc(S(N)(=O)=O)cc1	Ki (Carbonic anhydrase 1): 92 nM
69.3	7.9	NS(=O)(=O)c1ccc(NC(=O)Nc2ccc(Br)cc2)cc1	–
–	4.6	CC(=O)c1ccc(NC(=O)Nc2ccc(S(N)(=O)=O)cc2)cc1	Activity (4T1 [1]): inactive; Activity (Mus musculus [2]): Non-toxic
0.9	–	NS(=O)(=O)c1ccc(NC(=O)Nc2cccc([N+](=O)[O-])c2)cc1	Activity (4T1 [3]): Dose-dependent effect; Activity (Mus musculus [4]): Non-toxic
541	49.7	CC(C)c1ccc(NC(=O)Nc2ccc(S(N)(=O)=O)cc2)cc1	–
0.5	4.2	CC(C)c1ccccc1NC(=O)Nc1ccc(S(N)(=O)=O)cc1	–
376	28.5	CCCCc1ccc(NC(=O)Nc2ccc(S(N)(=O)=O)cc2)cc1	–
